The values that follow come from patent publication US6362180B1, “Imidazopyridines for the treatment of neurological disorders” (Bristol-Myers Squibb Pharma Company, priority 1997, dated 2002).

Broadly, the melting point is the temperature of the solid-liquid transition. The molecule `CCCCC(CC)n1c(CC)nc2c(-c3c(C)cc(C)cc3C)ncnc21` (stereo not drawn) [Example 2, 8-Ethyl-9-(1-ethylpentyl)-6-(2,4,6-trimethylphenyl)purine] gave a melting point of 99 to 100 °C.
As for `CCc1nc2c(-c3ccc(OC)cc3Cl)ncnc2n1C(C1CC1)C1CC1` [Example 831, 6-(2-Chloro-4-methoxyphenyl)-9-dicyclopropylmethyl-8-ethylpurine], the melting point fell in the range of 139 to 140 °C.
In turn, `CCc1nc2c(-c3cc4c(cc3C)OCC4)ncnc2n1C(C1CC1)C1CC1` [Example 5001, 9-Dicyclopropylmethyl-8-ethyl-6-(6-methyl-2,3-dihydrobenzofuran-5-yl)purine] displayed a melting point of 147 to 148 °C.
On to `CCc1nc2c(-c3cc4ccoc4cc3C)ncnc2n1C(C1CC1)C1CC1` [Example 5201, 9-dicyclopropylmethyl-8-ethyl-6-(6-methylbenzofuran-5-yl)purine], for which the melting point was in the range of 139 to 141 °C.
In the case of `CCc1nc2c(-c3cc4cc(Br)oc4cc3C)ncnc2n1C(C1CC1)C1CC1` [Example 5231, 6-(2-bromo-6-methylbenzofuran-5-yl)-9-dicyclopropylmethyl-8-ethylpurine], the melting point was in the range of 177 to 178 °C.
In turn, `CCc1nc2c(-c3cc4c(c(Br)c3C)OCC4)ncnc2n1C(C1CC1)C1CC1` [Example 5232, 6-(7-bromo-6-methyl-2,3-dihydrobenzofuran-5-yl)-9-dicyclopropylmethyl-8-ethylpurine] registered a melting point of 179 to 180 °C.
